The source of these data is patent EP3409293B1, “COMPLEXES COMPRISING PHOSPHOLIPIDS, WATER-SOLUBLE DEXTRIN FIBERS AND ANTIOXIDANT ACTIVE PRINCIPLES OF NATURAL ORIGIN, THEIR PREPARATION AND USE IN ORAL FORMULATIONS” (UNIVERSITA' DEGLI STUDI DI CAGLIARI, priority 2017, dated 2018).

A short description of data set [1]: Plasmatic concentration of curcumin in rats after gavage. The format is in vivo, WISTAR male rats. Particulars: 2 mL containing 20 mg/mL of curcumin, during the 8 hours of study. How it is done: Curcumin in dispersion or carried in liposomes or nutriosomes was administered to rats in vivo, and both the local accumulation and the plasmatic concentration were measured. The experiments were conducted by using WISTAR male rats (8-12 weeks of age and 230-250 g). The animals were treated in accordance with the European Union regulations concerning the use of laboratory animals. The protocols have been approved by the Istitutional Animal Care and Use Committee of the University of Valencia (Spain). Throughout the length of the study, the animals were kept in a thermally conditioned chamber, with a light/dark cycle of 12 hours and free access to water and food. […] In order to measure the quantity of curcumin accumulated in the intestine, the rats were sacrificed 4 hours after administration, and the gastrointestinal apparatus was removed and divided into the different segments. […]
In order to quantify a plasmatic concentration of curcumin when administering the aqueous dispersion, it was necessary to double the concentration; therefore, 2 mL of dispersion were administered, containing 20 mg/mL of curcumin instead of 10 mg/mL as in liposomes and nutriosomes (Figure 10). Notwithstanding this, the measured plasmatic concentration is always very low, i.e. ∼10 ng/mL during the 8 hours of study. […]

The next data set has as its system Caco2. Kind of data set: Biocompatibility on Caco2 cells, 48 hours, MTT (curcumin, EU-nutriosomes). The data set is classed as cell-based, human. Particulars: Caco2, 48 hours, higher dilutions; % of untreated cells. Here is the method: The biocompatibility of curcumin in dispersion or carried in liposomes or EU-nutriosomes was measured by treating intestinal cells (Caco2) with the vesicular formulations at different dilutions for 48 hours. At the end of this incubation period, cell viability was measured by MTT test, and was expressed as a percentage with respect to the untreated cells (negative control). The results are shown in the annexed Figure 13. At the lowest dilution (10 µg/mL of curcumin), viability is ~75%, regardless of the tested sample; at higher dilutions, the viability of the cells treated with curcumin in dispersion remains around 80%, while that of the cells treated with the nutriosomes is greater (~105%) and equal to that of the reference liposomes, which are generally known to be a non-toxic and biocompatible carrier. Probably all vesicular systems are capable of modulating the curcumin uptake within the cells, thereby reducing any toxic effect thereof. By using a non-toxic dilution (1 µg/mL of curcumin), we studied the ability of the formulations to promote the antioxidizing efficacy of the polyphenol. As shown in the previous example, the cells were stressed with hydrogen peroxide and simultaneously treated with curcumin in dispersion or incorporated in the vesicles (see annexed Figure 14). […]

Another data set relates to Caco2 cells. Kind of data set: Protection of Caco2 cells against hydrogen peroxide oxidative damage (MTT), curcumin formulations. The data set is classed as cell-based, human. Particulars: Caco2 cells treated with hydrogen peroxide and simultaneously with curcumin formulation, 4 hours; % of untreated cells. Here is the method:
A study was carried out to evaluate the in vitro ability of the nutriosomes to improve the protective efficacy of curcumin against the oxidative damage induced in Caco2 cells by hydrogen peroxide (Figure 8). The cells were sown in 96-well plates and incubated at 37 °C in an atmosphere with 5% CO2 for the period necessary for achieving confluence. As a negative control, cells maintained in optimal growth conditions and not treated either with hydrogen peroxide or with curcumin were used; as a positive control, cells maintained in optimal growth conditions and treated with hydrogen peroxide, but not treated with curcumin, were used. The other cells were treated with hydrogen peroxide and, simultaneously, with curcumin in aqueous dispersion or carried in liposomes, nutriosomes and HPMC-nutriosomes. The cells were incubated for 4 hours, washed with PBS, and then cell survival was measured by means of a colorimetric test with tetrazolium salt, 3-(4,5-dimethylthiazol-2-yl)-2,5-diphenyltetrazolium bromide (MTT) (see annexed Figure 8). Cell viability was calculated as a percentage of the viability of the untreated cells (negative control).

Data set [2] is described as follows: Ascorbic acid release from vesicles by dialysis at pH 2 and pH 7. The format is physicochemical. Particulars: 37 °C. Here is the method:
The velocity (concentration as a function of time) at which the ascorbic acid is released from the vesicles as a function of pH (2 and 7) was measured as well. The dispersions (1 mL) were transferred into dialysis tubes Spectra-Por (300 kDa Float-A-Lyzer G2) immersed in 50 mL of a solution of HCl 0.1 M (pH 2), or in 50 mL of PBS (Phosphate Buffered Saline at pH 7), and maintained at 37 °C under constant stirring for 2 hours at pH 2 and for 6 hours at pH 7. A percentage of the sample was removed at predefined time intervals, and the ascorbic acid concentration was measured with a UV spectrophotometer. […] As aforementioned, release studies were carried out in order to evaluate the ability of the lamellar vesicles to retain and protect the ascorbic acid during the passage through the stomach (pH 2) and/or to retain/protect the same at the neutral pH of the intestine. […] The nutriosomes of the present invention, with or without the additional polymer HPMC, release a quantity of less than 20% after 20 minutes; subsequently, the HPMC-nutriosomes release the lowest percentage, ~40%, after 120 minutes.

As to `COc1cc(C=CC(=O)CC(=O)C=Cc2ccc(O)c(OC)c2)ccc1O` [curcumin in aqueous dispersion, 1,7-Bis(4-hydroxy-3-methoxyphenyl)hepta-1,6-diene-3,5-dione], in data set [1], the “plasmatic concentration of curcumin” value is recorded as around 10 ng/mL. Besides, the values for the cell viability entry with Caco2 and in the data set with Caco2 cells were “around 80%” and ~ 69%, respectively.
`O=C1O[C@H]([C@@H](O)CO)C(O)=C1O` [aqueous solution, ascorbic acid]: the ascorbic acid released entry in data set [2] (pH 2 (HCl 0.1 M), after 20 minutes) was “approximately 80%”; in data set [2] (pH 7 (PBS), after 1 hour) it was “about 80%”.
